Measurements as given in patent US20200278355A1, “CONJUGATED PROTEINS AND USES THEREOF” (THE SCRIPPS RESEARCH INSTITUTE, priority 2017, published 2020).

Biological target: T1, HA-NR0B1-WT binding to FLAG-SNW1 (Homo sapiens, UniProt P51843)
T1 construct: expressed in transfected cells; host or cells: HEK293T (pRK5-based plasmids)
Assay: Modified in vitro binding assay: HA-NR0B1-WT from compound-treated HEK293T cells binding to FLAG-SNW1
Type: cell-based
Details: HEK293T cells expressing HA-NR0B1-WT treated with compound, lysate binding to FLAG-SNW1
Protocol: FIG. 5A-FIG. 5G show covalent ligand targeting C274 disrupts NR0B1 protein complexes. […] Percentage of NR0B1 bound to SNW1 was normalized to vehicle (DMSO). A hit compound BPK-26 is marked in red. […] HEK293T cells expressing the indicated proteins were treated with BPK-29 or vehicle (3 h) prior to treatment with BPK-29yne (30 min). Immunoprecipiated proteins were analyzed by in-gel fluorescence-scanning and immunoblotting. […] HEK293T cells expressing HA-NR0B1-WT or HA-NR0B1-C274V proteins were treated with DMSO or BPK-29, after which lysates were generated and evaluated for binding to FLAG-SNW1, as shown in (B).
FIG. 11A-FIG. 11F illustrate a covalent ligand targeting Cys274 disrupts NR0B1 protein complexes. […] See also FIG. 5C. […] Top: Structures of screening hit BPK-28 and synthesized derivatives. […] FLAG-immunoprecipitates were prepared from each lysate and subjected to proteolytic digestion, whereupon tryptic peptides harboring C274 were analyzed by LC-MS/MS. […] Immunoprecipitates were analyzed by in-gel fluorescence-scanning to assess BPK-29yne labeling or by immunoblot for FLAG-NR0B1. […] In a modified in vitro binding assay shown in FIG. 5B, HEK293T cells expressing HA-NR0B1-WT or an HA-NR0B1-C274V mutant were treated with DMSO or BPK-26 (20 μM, 3 h), after which lysates were and interaction with FLAG-SNW1 assessed. […]

T1 sequence (P51843 whole entry): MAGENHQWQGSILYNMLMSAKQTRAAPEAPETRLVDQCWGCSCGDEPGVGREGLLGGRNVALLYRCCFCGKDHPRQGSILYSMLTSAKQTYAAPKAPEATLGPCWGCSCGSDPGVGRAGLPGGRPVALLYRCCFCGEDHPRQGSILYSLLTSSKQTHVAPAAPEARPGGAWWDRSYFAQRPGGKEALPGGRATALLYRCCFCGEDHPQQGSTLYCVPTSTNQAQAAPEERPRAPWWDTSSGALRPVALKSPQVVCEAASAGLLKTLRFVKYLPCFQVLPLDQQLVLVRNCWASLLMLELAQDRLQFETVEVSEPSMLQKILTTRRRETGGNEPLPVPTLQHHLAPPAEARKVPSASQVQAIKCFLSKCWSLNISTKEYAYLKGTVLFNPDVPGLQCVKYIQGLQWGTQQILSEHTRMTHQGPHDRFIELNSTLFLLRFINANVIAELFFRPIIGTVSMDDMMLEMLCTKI

O=C(c1ccc(N2CCOCC2)cc1)N1CCCC(N(Cc2ccccc2)C(=O)CCl)CC1 (stereo not shown) [BPK-29, N-benzyl-2-chloro-N-(1-(4-morpholinobenzoyl)azepan-4-yl)acetamide]
disruption of NR0B1-WT protein interactions (binding to FLAG-SNW1): disrupts protein interactions for NR0B1-WT
